Series [1] deals with T1, Transient receptor potential cation channel subfamily A member 1 (Homo sapiens, UniProt O75762). Nature of the series: Antagonist activity at recombinant human TRPA1 expressed in HEK293F cells assessed as reduction in AITC-induced increase in intracellular Ca2+ level by FLIPR-based Ca2+ assay. It counts as cell-based.
For series [2], the target named is Transient receptor potential cation channel subfamily A member 1 (Rattus norvegicus, UniProt Q6RI86). Nature of the series: Antagonist activity at rat TRPA1 expressed in HEK293F cells assessed as reduction in AITC-induced increase in intracellular Ca2+ level by FLIPR-based Ca2+ assay. It is filed as cell-based.
Series [3] is filed under the species Homo sapiens. Briefly: Inhibition of sodium channel (unknown origin) at 10 micromol/L by radioligand binding assay relative to control. To be noted: dose 10.0 µmol/L.
Series [4] is filed under the species Homo sapiens. Briefly: Inhibition of sigma receptor (unknown origin) at 10 micromol/L by radioligand binding assay relative to control. To be noted: dose 10.0 µmol/L.
Series [5] deals with Cannabinoid receptor 2 (Homo sapiens) (UniProt P34972). Briefly: Inhibition of CB2 receptor (unknown origin) at 10 micromol/L by radioligand binding assay relative to control. To be noted: dose 10.0 µmol/L.
Series [6] can be described thus: Toxicity in Sprague-Dawley rat assessed as increase in body temperature at 1.16 mg/kg, po measured after 480 mins by radiotelemetric analysis. It counts as organism-based. The conditions noted are these: in vivo, 8 h.
A short description of series [7]: Toxicity in Sprague-Dawley rat assessed as increase in body temperature at 3.88 mg/kg, po measured after 480 mins by radiotelemetric analysis. The conditions noted are these: in vivo, 8 h. It is filed as organism-based.
Series [8] is described as follows: Toxicity in Sprague-Dawley rat assessed as effect on tail withdrawal latency to hot water immersion at 55 degreeC at 11.6 mg/kg, po by tail immersion test. It is filed as organism-based. The conditions noted are these: in vivo.
Series [9] deals with T1, Transient receptor potential cation channel subfamily A member 1. Briefly: Antagonist activity at TRPA1 (unknown origin).
Series [10] concerns Rattus norvegicus. Nature of the series: Antiallodynic activity in CCI-induced neuropathic pain Sprague-Dawley rat model assessed as attenuation of mechanical allodynia at 100 mg/kg, po administered with compound for 1 hrs and measured 10 to 14 days after surgery relative to control. To be noted: time 241-337 hrs. It counts as functional.
The subject of series [11] is Rattus norvegicus. Nature of the series: Antiallodynic activity in spinal nerve ligation-induced neuropathic pain Sprague-Dawley rat model assessed as attenuation of mechanical allodynia at 100 mg/kg, po administered with compound for 1 hrs and measured 10 to 14 days after surgery relative to control. It counts as functional. The conditions noted are these: time 241-337 hrs.

Series [12] concerns Rattus norvegicus. Nature of the series: Antiallodynic activity in CFA-induced mechanical allodynia Sprague-Dawley rat model assessed as attenuation of mechanical allodynia at 100 mg/kg, po administered with compound for 1 hrs and measured 48 hrs after CFA injection relative to control. It counts as functional. To be noted: time 49 hrs.

T1 sequence (O75762 whole entry): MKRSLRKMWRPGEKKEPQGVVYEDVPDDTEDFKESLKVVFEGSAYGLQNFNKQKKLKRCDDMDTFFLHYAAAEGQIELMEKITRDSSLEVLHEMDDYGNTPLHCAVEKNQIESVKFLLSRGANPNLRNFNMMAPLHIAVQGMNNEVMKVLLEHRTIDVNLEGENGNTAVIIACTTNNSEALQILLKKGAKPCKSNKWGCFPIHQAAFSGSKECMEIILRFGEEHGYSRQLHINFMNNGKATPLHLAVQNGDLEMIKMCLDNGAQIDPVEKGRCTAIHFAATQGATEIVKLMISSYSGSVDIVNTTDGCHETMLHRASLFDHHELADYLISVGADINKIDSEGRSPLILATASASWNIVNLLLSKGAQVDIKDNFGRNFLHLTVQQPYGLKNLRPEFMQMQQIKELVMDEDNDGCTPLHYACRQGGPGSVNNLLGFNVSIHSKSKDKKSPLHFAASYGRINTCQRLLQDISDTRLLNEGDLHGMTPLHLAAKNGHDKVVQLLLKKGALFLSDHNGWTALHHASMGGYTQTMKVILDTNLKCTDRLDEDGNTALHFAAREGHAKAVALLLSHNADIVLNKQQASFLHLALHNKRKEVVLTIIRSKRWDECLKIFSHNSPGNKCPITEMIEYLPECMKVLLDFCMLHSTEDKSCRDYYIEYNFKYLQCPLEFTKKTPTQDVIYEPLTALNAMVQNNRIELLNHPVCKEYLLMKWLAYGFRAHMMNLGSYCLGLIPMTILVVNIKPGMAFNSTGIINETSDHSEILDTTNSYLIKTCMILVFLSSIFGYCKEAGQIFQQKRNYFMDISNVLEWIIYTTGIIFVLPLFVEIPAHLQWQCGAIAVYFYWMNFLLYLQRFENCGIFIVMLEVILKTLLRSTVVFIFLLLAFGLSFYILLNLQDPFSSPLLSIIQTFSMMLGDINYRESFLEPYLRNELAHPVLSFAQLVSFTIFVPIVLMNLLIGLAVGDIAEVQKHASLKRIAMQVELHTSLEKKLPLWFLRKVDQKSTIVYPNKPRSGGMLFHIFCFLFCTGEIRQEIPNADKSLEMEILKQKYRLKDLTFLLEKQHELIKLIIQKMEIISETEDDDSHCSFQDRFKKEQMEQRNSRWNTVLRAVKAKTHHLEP
Sequence of Transient receptor potential cation channel subfamily A member 1 (Rattus norvegicus, UniProt Q6RI86) (Q6RI86 whole entry): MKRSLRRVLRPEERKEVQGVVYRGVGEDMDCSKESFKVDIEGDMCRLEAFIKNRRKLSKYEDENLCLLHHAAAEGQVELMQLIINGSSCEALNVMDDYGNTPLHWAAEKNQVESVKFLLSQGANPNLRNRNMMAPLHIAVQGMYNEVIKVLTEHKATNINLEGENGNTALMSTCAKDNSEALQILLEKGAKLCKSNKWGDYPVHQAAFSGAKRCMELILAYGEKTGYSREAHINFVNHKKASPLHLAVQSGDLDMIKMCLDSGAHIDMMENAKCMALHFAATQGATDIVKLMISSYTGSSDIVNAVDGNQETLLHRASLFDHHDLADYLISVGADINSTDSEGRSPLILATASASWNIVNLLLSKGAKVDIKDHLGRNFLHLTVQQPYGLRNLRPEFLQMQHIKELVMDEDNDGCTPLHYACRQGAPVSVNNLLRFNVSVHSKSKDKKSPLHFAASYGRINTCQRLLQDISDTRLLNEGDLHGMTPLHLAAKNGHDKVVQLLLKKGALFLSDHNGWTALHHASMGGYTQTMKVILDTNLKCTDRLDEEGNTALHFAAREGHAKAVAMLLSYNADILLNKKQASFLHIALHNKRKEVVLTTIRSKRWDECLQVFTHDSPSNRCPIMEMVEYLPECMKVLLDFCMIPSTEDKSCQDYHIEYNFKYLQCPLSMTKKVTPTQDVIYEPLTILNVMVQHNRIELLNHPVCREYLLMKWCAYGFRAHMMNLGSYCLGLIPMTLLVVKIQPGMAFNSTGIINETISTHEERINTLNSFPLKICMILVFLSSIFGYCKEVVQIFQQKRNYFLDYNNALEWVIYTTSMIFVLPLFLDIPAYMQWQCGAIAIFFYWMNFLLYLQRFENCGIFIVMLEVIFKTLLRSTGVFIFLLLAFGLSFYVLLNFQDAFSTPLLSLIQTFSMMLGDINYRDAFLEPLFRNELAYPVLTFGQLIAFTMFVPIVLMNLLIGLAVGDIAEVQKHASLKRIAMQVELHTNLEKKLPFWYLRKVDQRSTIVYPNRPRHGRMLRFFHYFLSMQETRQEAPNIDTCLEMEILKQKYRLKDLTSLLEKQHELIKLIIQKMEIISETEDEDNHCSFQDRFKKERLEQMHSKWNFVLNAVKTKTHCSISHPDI
Sequence of Cannabinoid receptor 2 (Homo sapiens) (P34972 whole entry): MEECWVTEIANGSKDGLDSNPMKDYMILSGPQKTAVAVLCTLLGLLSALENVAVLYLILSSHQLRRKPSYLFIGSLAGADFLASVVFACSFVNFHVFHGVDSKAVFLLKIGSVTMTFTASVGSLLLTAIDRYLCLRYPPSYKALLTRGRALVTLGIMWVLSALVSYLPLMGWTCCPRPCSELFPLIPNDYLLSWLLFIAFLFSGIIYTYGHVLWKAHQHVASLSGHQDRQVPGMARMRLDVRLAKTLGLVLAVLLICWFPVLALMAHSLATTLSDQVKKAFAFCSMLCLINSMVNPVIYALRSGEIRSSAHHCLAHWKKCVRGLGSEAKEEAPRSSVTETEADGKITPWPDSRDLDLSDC

For orientation: IC50 means the concentration at which inhibition is half-maximal. The term inhibition denotes how much of the control response was suppressed. Read a low inhibition as a weak effect. For `CC(C)c1ccc(NC(=O)Cn2cnc3c2c(=O)n(C)c(=O)n3C)cc1`, the IC50 in series [1] and in [2] was 6.9 µM in each case. The values for the inhibition (in the series listed under Homo sapiens [3]; in the series listed under Homo sapiens [4]; in series [5]) were 40%, 37% and 33%, respectively.
With `Cc1nc(Nc2cccc3c2C[C@H](O)CC3)oc1-c1ccc(C(F)(F)F)cc1`, the deltaT in [6] came to 0.6 °C; in series [7], 0.9 °C. Besides, the Activity entry in [8] is recorded as “Toxic”.
Regarding `CC(=N/O)/C(C)=C/c1ccc(Cl)cc1`, the IC50 in series [1] amounted to 6.9 µM; in series [2], 8.8 µM; in series [9], 3.1 µM.
Take `NCC1(CC(=O)O)CCCCC1` [GABAPENTIN]: the Activity with Rattus norvegicus [10], with Rattus norvegicus [11] and in the series with Rattus norvegicus [12] was 50% each time.

Source of the values: ChEMBL document CHEMBL5678803, “Selective blockade of TRPA1 channel attenuates pathological pain without altering noxious cold sensation or body temperature regulation” (Pain, 2011).
